Data on four compounds can be found in patent US20130274210A1, “DENDRIMERS WITH A SACCHARIDE ENDING FOR ANTI-INFLAMMATORY PURPOSES” (UNIVERSITE PAUL SABATIER TOULOUSE III, priority 2010, published 2013).

A short description of data set [1]: Solubility (properties of prepared molecules). In kind it is physicochemical.
The test system of data set [2] is human dendritic cells stimulated with LPS. Particulars: stimulation by LPS, via DC-SIGN receptor; background statement; cited from earlier work.

For `NNC(=O)CCOC1OC(CO)C(O)C(O)C1O` (centres unmarked), in data set [1], the solubility entry is “soluble in H2O, MeOH, DMF”.

Regarding `NNC(=O)CCCCCCCCOC1OC(CO)C(O)C(O)C1OC1OC(CO)C(O)C(O)C1O` (centres unmarked), in data set [1], the solubility entry was “soluble in H2O, MeOH, DMF”.

Regarding `NNC(=O)CCCCCCCCOC1OC(CO)C(O)C(O)C1OC1OC(CO)C(O)C(O)C1OC1OC(CO)C(O)C(O)C1O` (centres unmarked), in data set [1], the solubility result is “soluble in H2O, MeOH, DMF”. With Mannosylated lipoarabinomannan [ManLAM], in data set [2], the “production of IL-10 by human dendritic cells” value is listed as “increase in the production of IL-10” and the “production of pro-inflammatory cytokines by human dendritic cells” value is given as “decrease in the production of pro-inflammatory cytokines”.
